This note sets out measurements from patent publication US20180318311A1, “TRICYCLIC 2-QUINOLINONES AS ANTIBACTERIALS” (priority 2017, published 2018).

Values after ≈ are worked out from the molar mass of the structure shown. Counter-ions that a name gives are not always drawn. Like-named read-outs stand apart in the source and are kept apart here. A value given as a limit tells only on which side of the number the result lay.

Assay type in all cases: cell-based
For experiment [1], the system named is S. aureus ATCC 49951 (NB01006). In words: MIC by broth microdilution, S. aureus NB01006. As to conditions: Staphylococcus aureus, ATCC49951, CAMHB, 35° C., 20 hours, read-out: Antibacterial activity (MIC) NB01006. The method in brief:
(§1)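 CAMHB, ~5×10^5 CFU/mL, 2-fold serial dilutions (final DMSO 1%), 35° C, ambient air, 20 h. Read OD600 plus visual check; MIC = lowest conc. with no visible growth, μg/mL.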
On the technique in general: Broth dilution looks for growth in wells or tubes with falling amounts of substance.

Experiment [2] has as its system S. aureus NB01006-AVR005, gyrA (S84L), grlA (580F) and grlB (E471K). In words: microbe, parasite or virus in culture. The conditions noted are these: Staphylococcus aureus, 20 h, read-out: Antibacterial activity (MIC) NB01006-AVR005. The method in brief: as §1
The test system of experiment [3] is S. aureus NB01080 fluoroquinolone-resistant clinical isolate. In words: MIC by broth microdilution, S. aureus NB01080. The conditions noted are these: Staphylococcus aureus, CAMHB, 35° C., 20 hours, read-out: Antibacterial activity (MIC) NB01080. The method in brief:
as §1

Experiment [4] has as its system E. faecalis ATCC 29212 (NB04001). In words: MIC by broth microdilution, E. faecalis NB04001. The conditions noted are these: Enterococcus faecalis, ATCC29212, CAMHB, 35° C., 20 hours, read-out: Antibacterial activity (MIC) NB04001. The method in brief: as §1
In experiment [5] the test system is S. pneumoniae ATCC 25922 (NB07001). In words: MIC by broth microdilution, S. pneumoniae NB07001. As to conditions: Streptococcus pneumoniae, read-out: Antibacterial activity (MIC) NB07001. An outline of the steps:
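MIC in μg/mL taken as the lowest concentration with no visible growth, checked by 600 nm reading after 20 h at 35°C, ambient air. Strains tested per CLSI microdilution in cation-adjusted Mueller-Hinton broth at about 5×10^5 CFU/mL, compounds as two-fold series, 1% DMSO final.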

The subject of experiment [6] is E. coli ATCC 25922 (NB27001). Nature of the experiment: MIC by broth microdilution, E. coli NB27001. The conditions noted are these: Escherichia coli, ATCC25922, CAMHB, 35° C., 20 hours, read-out: Antibacterial activity (MIC) NB27001. The method in brief:
as §1

Experiment [7] deals with P. aeruginosa NB52019, wild-type PAO1 strain. Nature of the experiment: MIC by broth microdilution, P. aeruginosa NB52019. The conditions noted are these: Pseudomonas aeruginosa, CAMHB, 35° C., 20 hours, read-out: Antibacterial activity (MIC) NB52019. The method in brief:
as §1

For the molecule `C[C@H](N)[C@@H]1CCN(c2c(F)c(F)c3cc(C(=O)O)c(=O)n4c3c2OC[C@@H]4C)C1` [Example 13.2, (S)-10-((R)-3-((S)-1-aminoethyl)pyrrolidin-1-yl)-8,9-difluoro-3-methyl-5-oxo-2,3-dihydro-5H-[1,4]oxazino[2,3,4-ij]quinoline-6-carboxylic acid], the MIC was under 1 µg/mL in experiment [1]; under 1 µg/mL in experiment [2]; under 1 µg/mL in experiment [3]; under 1 µg/mL in experiment [4]; under 1 µg/mL in experiment [5] (ATCC25922, 20 h); under 1 µg/mL in experiment [6]. Besides, in experiment [7], the MIC was 1 to 32 µg/mL (≈ 2.54 to 81.3 µM).

Consider `C[C@H]1COc2c(N3CCN(C)CC3)c(F)c(F)c3cc(C(=O)O)c(=O)n1c23` [Example 13.3], for which the MIC is 1 to 32 µg/mL (≈ 2.64 to 84.4 µM) in experiment [1]; over 32 µg/mL in experiment [2]; over 32 µg/mL in experiment [3]; over 32 µg/mL in experiment [4]; over 32 µg/mL in experiment [5] (ATCC25922, S. pneumoniae, CAMHB supplemented with 5% lysed horse blood, 35° C., 20 hours); 1 to 32 µg/mL (≈ 2.64 to 84.4 µM) in experiment [6]. For the same molecule, the MIC in experiment [7] is over 32 µg/mL.

As for `C[C@H]1COc2c(N3CCC(F)(CN)C3)c(F)c(F)c3cc(C(=O)O)c(=O)n1c23` (stereo partly drawn) [Example 13.5, (3S)-10-(3-(aminomethyl)-3-fluoropyrrolidin-1-yl)-8,9-difluoro-3-methyl-5-oxo-2,3-dihydro-5H-[1,4]oxazino[2,3,4-ij]quinoline-6-carboxylic acid], the MIC in experiment [1] is under 1 µg/mL; in experiment [2], 1 to 32 µg/mL (≈ 2.52 to 80.5 µM); in experiment [3], 1 to 32 µg/mL (≈ 2.52 to 80.5 µM); in experiment [4], under 1 µg/mL; in experiment [5] (ATCC25922, 20 h), under 1 µg/mL; in experiment [6] it was 1 to 32 µg/mL (≈ 2.52 to 80.5 µM). Further, the MIC in experiment [7] was over 32 µg/mL.

With `C[C@H]1COc2c(N3CC[C@@H](C4(N)CCC4)C3)c(F)c(F)c3cc(C(=O)O)c(=O)n1c23` [Example 13.8, (S)-10-((R)-3-(1-aminocyclobutyl)pyrrolidin-1-yl)-8,9-difluoro-3-methyl-5-oxo-2,3-dihydro-5H-[1,4]oxazino[2,3,4-ij]quinoline-6-carboxylic acid], the MIC in experiment [1] was under 1 µg/mL; in experiment [2] it was under 1 µg/mL; in experiment [3], under 1 µg/mL; in experiment [4], under 1 µg/mL; in experiment [5] (ATCC25922, 20 h), under 1 µg/mL; in experiment [6] it was 1 to 32 µg/mL (≈ 2.38 to 76.3 µM). Further, in experiment [7], the MIC lay within 1 to 32 µg/mL (≈ 2.38 to 76.3 µM).

For the molecule `C[C@H]1COc2c(N3CC[C@@H](C4(N)CC4)C3)c(F)c(N)c3cc(C(=O)O)c(=O)n1c23` [Example 14, (S)-8-amino-10-((R)-3-(1-aminocyclopropyl)pyrrolidin-1-yl)-9-fluoro-3-methyl-5-oxo-2,3-dihydro-5H-[1,4]oxazino[2,3,4-ij]quinoline-6-carboxylic acid hydrochloride salt], the MIC in experiment [1] was under 1 µg/mL; in experiment [2] it was 1 to 32 µg/mL; in experiment [3], 1 to 32 µg/mL; in experiment [4], under 1 µg/mL; in experiment [5] (ATCC25922, 20 h) it was under 1 µg/mL; in experiment [6], 1 to 32 µg/mL. In addition, in experiment [7], the MIC is over 32 µg/mL.

Take `COc1c(N2CC[C@@H](C3(N)CC3)C2)c2c3c(cc(C(=O)O)c(=O)n3[C@@H](C)CO2)c1N` [Example 15, (S)-8-amino-10-((R)-3-(1-aminocyclopropyl)pyrrolidin-1-yl)-9-methoxy-3-methyl-5-oxo-2,3-dihydro-5H-[1,4]oxazino[2,3,4-ij]quinoline-6-carboxylic acid formate salt]: the MIC was over 32 µg/mL in experiment [1]; over 32 µg/mL in experiment [2]; over 32 µg/mL in experiment [3]; over 32 µg/mL in experiment [4]; 1 to 32 µg/mL in experiment [5] (ATCC25922, 20 h); over 32 µg/mL in experiment [6]. Moreover, the MIC in experiment [7] is over 32 µg/mL.

In the case of `COc1cc2cc(C(=O)O)c(=O)n3c2c(c1N1CC[C@@H](C2(N)CC2)C1)OC[C@@H]3C` [Example 16, (S)-10-((R)-3-(1-aminocyclopropyl)pyrrolidin-1-yl)-9-methoxy-3-methyl-5-oxo-2,3-dihydro-5H-[1,4]oxazino[2,3,4-ij]liquinoline-6-carboxylic acid formate salt], the MIC in experiment [1] was over 32 µg/mL; in experiment [2] it was over 32 µg/mL; in experiment [3], over 32 µg/mL; in experiment [4], over 32 µg/mL; in experiment [5] (ATCC25922, 20 h), 1 to 32 µg/mL; in experiment [6], over 32 µg/mL. In addition, in experiment [7], the MIC was over 32 µg/mL.

`C[C@H]1COc2c(N3CC[C@@H](C4(N)CC4)C3)c(C#N)cc3cc(C(=O)O)c(=O)n1c23` [Example 17, (S)-10-((R)-3-(1-aminocyclopropyl)pyrrolidin-1-yl)-9-cyano-3-methyl-5-oxo-2,3-dihydro-5H-[1,4]oxazino[2,3,4-ij]quinoline-6-carboxylic acid trifluoroacetate salt]: the MIC in experiment [1] is under 1 µg/mL; in experiment [2], 1 to 32 µg/mL; in experiment [3] it was 1 to 32 µg/mL; in experiment [4], under 1 µg/mL; in experiment [5] (ATCC25922, 20 h) it was under 1 µg/mL; in experiment [6], over 32 µg/mL. Also, the MIC in experiment [7] was over 32 µg/mL.

Turning to `C[C@H]1COc2c(N3CC[C@@H](C4(N)CC4)C3)c(Cl)cc3cc(C(=O)O)c(=O)n1c23` [Example 18, (S)-10-((R)-3-(1-aminocyclopropyl)pyrrolidin-1-yl)-9-chloro-3-methyl-5-oxo-2,3-dihydro-5H-[1,4]oxazino[2,3,4-ij]quinoline-6-carboxylic acid hydrochloride salt], the MIC in experiment [1] was 1 to 32 µg/mL; in experiment [2], over 32 µg/mL; in experiment [3], 1 to 32 µg/mL; in experiment [4], 1 to 32 µg/mL; in experiment [5] (ATCC25922, 20 h), under 1 µg/mL; in experiment [6], over 32 µg/mL. For the same molecule, the MIC in experiment [7] is over 32 µg/mL.

Regarding `C[C@H]1COc2c(N3CC[C@@H](C4(N)CC4)C3)c(F)c(Cl)c3cc(C(=O)O)c(=O)n1c23` [Example 19.1, (S)-10-((R)-3-(1-aminocyclopropyl)pyrrolidin-1-yl)-8-chloro-9-fluoro-3-methyl-5-oxo-2,3-dihydro-5H-[1,4]oxazino[2,3,4-ij]quinoline-6-carboxylic acid formate salt], the MIC in experiment [1] was under 1 µg/mL; in experiment [2], under 1 µg/mL; in experiment [3], under 1 µg/mL; in experiment [4] it was under 1 µg/mL; in experiment [5] (ATCC25922, 20 h), under 1 µg/mL; in experiment [6], 1 to 32 µg/mL. Further, the MIC in experiment [7] was over 32 µg/mL.

On to `C[C@H](N)[C@@H]1CCN(c2c(F)c(Cl)c3cc(C(=O)O)c(=O)n4c3c2OC[C@@H]4C)C1` [Example 19.2, (S)-10-((R)-3-((S)-1-aminoethyl)pyrrolidin-1-yl)-8-chloro-9-fluoro-3-methyl-5-oxo-2,3-dihydro-5H-[1,4]oxazino[2,3,4-ij]quinoline-6-carboxylic acid], for which the MIC was under 1 µg/mL in experiment [1]; under 1 µg/mL in experiment [2]; under 1 µg/mL in experiment [3]; under 1 µg/mL in experiment [4]; under 1 µg/mL in experiment [5] (ATCC25922, 20 h); under 1 µg/mL in experiment [6]. In addition, the MIC in experiment [7] lay within 1 to 32 µg/mL (≈ 2.44 to 78.1 µM).

On to `C[C@H]1COc2c(N3CC[C@@H](C4(N)CC4)C3)cc(N)c3cc(C(=O)O)c(=O)n1c23` [Example 20, (S)-8-amino-10-((R)-3-(1-aminocyclopropyl)pyrrolidin-1-yl)-3-methyl-5-oxo-2,3-dihydro-5H-[1,4]oxazino[2,3,4-ij]quinoline-6-carboxylic acid], for which the MIC in experiment [1] is under 1 µg/mL; in experiment [2], 1 to 32 µg/mL (≈ 2.6 to 83.2 µM); in experiment [3], 1 to 32 µg/mL (≈ 2.6 to 83.2 µM); in experiment [4] it was 1 to 32 µg/mL (≈ 2.6 to 83.2 µM); in experiment [5] (ATCC25922, 20 h), under 1 µg/mL; in experiment [6], 1 to 32 µg/mL (≈ 2.6 to 83.2 µM). In experiment [7], the MIC was over 32 µg/mL.

For the molecule `C[C@H]1COc2c(N3CC[C@@H](C4(N)CC4)C3)c(F)c(C#N)c3cc(C(=O)O)c(=O)n1c23` [Example 21.1, (S)-10-((R)-3-(1-aminocyclopropyl)pyrrolidin-1-yl)-8-cyano-9-fluoro-3-methyl-5-oxo-2,3-dihydro-5H-[1,4]oxazino[2,3,4-ij]quinoline-6-carboxylic acid trifluoroacetate salt], the MIC in experiment [1] was under 1 µg/mL; in experiment [2], under 1 µg/mL; in experiment [3] it was under 1 µg/mL; in experiment [4], under 1 µg/mL; in experiment [5] (ATCC25922, 20 h) it was under 1 µg/mL; in experiment [6], 1 to 32 µg/mL. The MIC in experiment [7] is over 32 µg/mL.

With `C[C@H]1COc2c(N3CC[C@@H](C4(N)CC4)C3)cc(C#N)c3cc(C(=O)O)c(=O)n1c23` [Example 21.2, (S)-10-((R)-3-(1-aminocyclopropyl)pyrrolidin-1-yl)-8-cyano-3-methyl-5-oxo-2,3-dihydro-5H-[1,4]oxazino[2,3,4-ij]quinoline-6-carboxylic acid], the MIC in experiment [1] was under 1 µg/mL; in experiment [2], 1 to 32 µg/mL (≈ 2.54 to 81.1 µM); in experiment [3], 1 to 32 µg/mL (≈ 2.54 to 81.1 µM); in experiment [4], 1 to 32 µg/mL (≈ 2.54 to 81.1 µM); in experiment [5] (ATCC25922, 20 h), under 1 µg/mL; in experiment [6] it was 1 to 32 µg/mL (≈ 2.54 to 81.1 µM). In addition, in experiment [7], the MIC was over 32 µg/mL.
